In patent publication US7807368B2, “Cyclin-dependent kinase inhibitors as targets for opiod growth factor treatment” (priority 2006, dated 2010):

Tests used:
Type in all cases: cell-based, human
SCC-1 cells [1] = assay: siRNA knockdown of OGFr, growth of SCC-1 cells
Description: siRNA knockdown of OGFr. […] For transfection, 5×10^4 cells per well were seeded in 6-well plates containing 1 ml of serum-containing media without antibiotics. In each well, 20 nM OGFr-siRNA or control siRNA solutions in serum-free media were added. Cells were incubated for 4 h at 37° C. prior to the addition of OGF. Cultures were incubated an additional 20 h, and then 1 ml fresh complete media either lacking or containing OGF was added. […] Two independent experiments were conducted. The control siRNAs were purchased from Ambion.

p21 = assay: Western blot of p21, p27 and Cdk2 in BxPC-3 cells; details: synchronized BxPC-3 cells, 9 hours, 10^-6 M OGF, 10^-5 M naloxone
Description: (§1) Synchronized cells (2×10^6) from each treatment were solubilized in 200 μl RIPA buffer (1×PBS, 10 μM IGEPAL, 1 mg/ml SDS, 5 mg/ml deoxycholic acid), containing protease and phosphatase inhibitors (2 μg/ml aprotinin, 3 mg/ml phenylmethyl sulfonyl fluoride, 1 mM sodium orthovanidate, 1 μM okadaic acid). Total protein concentrations were measured using the DC protein assay kit (Bio-Rad Laboratories, Hercules, Calif.). Equal amounts of protein (40 μg) were subjected to 10% SDS-PAGE followed by transfer of proteins onto polyvinylidene difluoride (Millipore, Billerica, Mass.) using standard protocols.
The following antibodies were purchased from commercial sources: phospho-Rb (Ser795), phospho-Rb (Ser807/811) (Cell Signaling Technology, Beverly, Mass.); Cdk2, p57 (Santa Cruz Biotechnology, Santa Cruz, Calif.); p21, p27, total Rb (BD PharMingen, San Diego, Calif.); β-actin (Clone AC-15, Sigma-Aldrich).
Membranes were probed with secondary anti-rabbit or anti-mouse horseradish peroxidase-conjugated antibodies (GE Healthcare-Amersham Biosciences, Piscataway, N.J.), and developed using a chemiluminescence Western blotting detection system.
(§2) To determine equal loading of total protein samples, blots were re-probed with monoclonal antibody against β-actin at a dilution of 1:2000. If necessary, membranes were processed in stripping buffer (62.5 mM Tris-HCI and 100 mM β-mercaptoethanol/2% SDS, pH 6.7) at 50° C. before being re-probed.
To quantify expression levels or kinase activity, the optical density of each band was determined by densitometry and analyzed by QuickOne (Bio-Rad Laboratories). Each value was normalized to β-actin from the same blot. To report the changes due to OGF treatment, we calculated the fold increase by dividing the normalized value from the OGF treated samples by the normalized value of control samples at each time point; thus, increases due to OGF have values greater than one, and decreases due to OGF have values less than one. For all Western blot analyses, 3 or more independent experiments were performed.
The p21-targeted siRNAs were obtained from Santa Cruz Biotechnology, and negative control siRNAs were purchased from Ambion (Ambion, Inc., Austin, Tex.). For transfection, 2×10^5 cells per well were seeded in 6-well plates containing 1 ml of media without antibiotics. For each well, 1 μl of siRNA stock (20 μM) was mixed with 175 μl of serum-free media. Two μl of Oligofectamine reagent (Invitrogen, Carlsbad, Calif.) was added to prewashed cells in each well, making the final concentration for siRNA approximately 20 nM. Cells were incubated for 4 hours at 37° C. prior to the addition of OGF. Eighteen hours later, 1 ml fresh complete media with or without OGF was added to the cultures; media and OGF were replaced daily. At the indicated time points, cells were collected for growth curves or Western blotting.

p16 [2] = assay: Western blot of p16, other CKIs and Cdk4 in SCC-1 cells; details: for p16 expression: synchronized SCC-1 cells, 3 h, 10^-6 M OGF, 10^-5 M naloxone
Description: Synchronized cells (˜2×10^6) from each treatment were solubilized in 200 μl RIPA buffer (1×PBS, 10 μM IGEPAL, 1 mg/ml SDS, 5 mg/ml deoxycholic acid), containing protease and phosphatase inhibitors (2 μg/ml aprotinin, 3 mg/ml phenylmethyl sulfonyl fluoride (PMSF), 1 mM sodium orthovanidate, 1 μM okadaic acid). Total protein concentrations were measured using the DC protein assay kit (Bio-Rad Laboratories, Hercules, Calif.). Equal amounts of protein (40 μg) were subjected to 10% SDS-PAGE followed by transfer of proteins onto polyvinylidene difluoride (Millipore, Billerica, Mass.) using standard protocols. The following antibodies were purchased from commercial sources: phospho-Rb (Ser795), phospho-Rb (Ser807/811) (Cell Signaling Technology, Beverly, Mass.); phospho-Rb (Thr821) (Biosource, Camarillo, Calif.); Cdk4, cyclin D1, p15, p16, p18, p19 (Santa Cruz Biotechnology, Santa Cruz, Calif.); total Rb, p21, p27 (BD PharMingen, San Diego, Calif.); β-actin (Clone AC-15, Sigma). The following dilutions of primary antibodies were used to detect respective proteins. 1:200 phospho-Rb (Ser795), 1:200 phospho-Rb (Ser807/811); 1:200 phospho-Rb (Thr821); 1:200 Cdk4, 1:200 cyclin D1, 1:100 p16; 1:200 total Rb, 1:200 p21, 1:100 p27. Membranes were probed with secondary anti-rabbit or anti-mouse horseradish peroxidase-conjugated antibodies (GE Healthcare-Amersham Biosciences, Piscataway, N.J.); blots were developed using a chemiluminescence Western blotting detection system (GE Healthcare-Amersham Biosciences).
as §2, with “reprobed” for “re-probed”, “stripped” for “processed”, “Tris-HCl” for “Tris-HCI”, “re-probed. Means and SE were determined from 3 or more independent experiments.” for “re-probed.”
To quantify expression levels or kinase activity, the optical density of each band was determined by densitometry and analyzed by QuickOne (Bio-Rad Laboratories). Each value was normalized to β-actin from the same blot. To report the changes due to OGF treatment, the fold increase was calculated by dividing the normalized value from the OGF treated samples by the normalized value of control samples at each time point; thus, increases due to OGF have values greater than one, and decreases due to OGF have values less than one.
(§3) The p16-targeted siRNAs (antisense:5′ […]-3′; sense (SEQ ID NO:5): 5′ […]-3′(SEQ ID NO:6) were obtained as ready-annealed, purified duplex probes (Invitrogen, Carlsbad, Calif.). For transfection, 2×10^5 cells per well were seeded in 6-well plates containing 1 ml of serum-free media without antibiotics. In each well, 20 nM of p16-siRNA or control siRNA solutions in serum-free media were added. Cells were incubated for 4 h at 37° C. prior to the addition of OGF. Cultures were incubated for additional 20 h, and then 1 ml fresh complete media either lacking or containing OGF was added. At the indicated time points, cells were collected for growth curves or Western blotting. Three or more independent experiments were conducted. The control siRNAs were purchased from Ambion.

p16 [3] = assay: Western blot of p16 in CAL-27 cells; details: CAL-27 cells transfected with p16 siRNA
Description: (§4) The SCC-1 (UM-SCC-1) cell line was obtained from the University of Michigan Cancer Research Laboratory, and CAL-27 and SCC-4 cells were obtained from the American Type Culture Collection (Manassas, Va.). SCC-1 and CAL-27 cells were cultured in DMEM media, whereas SCC-4 cells were grown in 1:1 Hams F-12 DMEM media. All media was supplemented with 10% fetal bovine serum (HyClone, Logan, Utah), 1.2% sodium bicarbonate, and 5000 units/ml penicillin, 5 μg/ml streptomycin and 10 μg/ml neomycin. OGF was purchased from Sigma-Aldrich (St. Louis, Mo.), dissolved in sterile water, and used at a final concentration of 10^−6 M.
as §1, with “(˜2×10^6)” for “(2×10^6)”, “fluoride (PMSF),” for “fluoride,”, “protocols. […]” for “protocols.”

SCC-1 cells [4] = assay: Growth of SCC-1 cells transfected with p16 siRNA or negative control siRNA; details: SCC-1 cells transfected with p16 siRNA, exposed to OGF for 96 h
Description: as §3

p16 [5] = assay: Western blot of p16 in SCC-4 cells; details: SCC-4 cells transfected with p16 siRNAs, 72 h
Description: as §4
as §1, with “(˜2×10^6)” for “(2×10^6)”, “fluoride (PMSF),” for “fluoride,”, “protocols. […]” for “protocols.”

Compound: O=C1CC[C@@]2(O)[C@H]3Cc4ccc(O)c5c4[C@@]2(CCN3CC2CC2)[C@H]1O5 [NTX]
- effect on growth of OGFr-siRNA cultures (SCC-1 cells [1]; SCC-1 cells subjected to OGFr-siRNA, 10^-6 M): no further effects
- increase in number of cells (SCC-1 cells [1]; control siRNA-exposed SCC-1 cells, 10^-6 M, 96 h): 27%
- increase in number of cells (SCC-1 cells [1]; wt SCC-1 cells, 10^-6 M, 96 h): 24%

Compound: C=CCN1CC[C@]23c4c5ccc(O)c4O[C@H]2C(=O)CC[C@@]3(O)[C@H]1C5 [naloxone]
- p21 expression (p21): no effect
- p21 expression (p21; listed as NAL): no change
- p16 expression (p16 [2]): no effect
- p16 expression (p16 [2]; listed as NAL): no change

Compound: OGFr-siRNA: OGFr-targeted siRNA duplex (SEQ ID NO:3 and 4) from Ambion (chain 1 UAGAAACUCAGGUUUGGCG; chain 2 CGCCAAACCUGAGUUUCUA; listed as RNA, chemistry not given here)
- more cells than wt and control siRNA-treated cultures (SCC-1 cells [1]; 20 nM siRNA, 96 h): approximately 19%

Compound: p16 siRNA: p16-targeted siRNA duplex (SEQ ID NO:5 and 6) from Invitrogen (chain 1 ACACCGCUUCUGCCUUUUCUU; chain 2 GAAAAGGCAGAAGCGGUGUUU; chemistry not given here)
- p16 levels relative to control cells (p16 [3]): significantly reduced p16 levels
- p16 protein level compared to untransfected cells (p16 [2]; SCC-1 cells transfected with p16 siRNA, after 72 h): significantly reduced levels
- effect of p16 knockdown on OGF growth inhibition (SCC-1 cells [4]): blocked OGF inhibitory action
- p16 protein level compared to control cells (p16 [5]): significantly reduced levels
